In patent US10328062B2, “Biomarkers and use of MET inhibitor for treatment of cancer” (AMGEN, INC., priority 2014, dated 2019):
Where two headings read alike, the source gives them in different places.

Legend:
TPR-MET xenografts = experiment: animal or person
Description: Nude mice bearing established TPR-MET xenografts were treated with Compound Mat doses of 0.1, 0.5, 0.75, 1, 2, 3, or 10 mg/kg. Three hours post dose, tumors were excised and flash frozen in liquid nitrogen. Tumors were then homogenized in lysis buffer containing protease and phosphatase inhibitors. Lysates were then processed per the SDS-PAGE and Immunoblotting protocol.
Tumors were harvested 3 hours post dose and tumor lysates prepared for analysis by SDS-PAGE and immunoblot using antibodies to phospho-Gab1 and β-actin. Phospho-Gab1 levels were quantified using a chemiluminescent imaging system.

MKN-45 = experiment: Flow cytometry cell cycle analysis; assay type: cell-based, Human; conditions: dose titration, 24 hours
Description: (§1) Bromodeoxyuridine (BrdU) labeling reagent was added to cells for the final two hours of compound treatment. Cells were then washed with PBS and treated with trypsin to release from the bottom of the plate. Cells were washed and fixed in 90% methanol at −20° C. overnight. Cells were then washed and treated with 2N HCl and 0.5% triton X-100 to denature the DNA, followed by a wash and staining with anti-BrdU Alexa-647 and anti-Cleaved-Caspase-3 FITC antibodies. Finally cells were subjected to RNase treatment and propidium iodide staining. Cells were then analyzed on an LSRII flow cytometer.
(§2) The anti-BrdU Alexa-647 antibody was purchased from Invitrogen (Carlsbad, Calif.). The anti-cleaved-caspase-3 FITC antibody was purchased from BD Pharmingen (San Jose, Calif.).
(§3) Flow cytometry cell cycle analysis of MET amplified gastric cancer cell line MKN-45 is represented in FIG. 6. […] BrdU labeling was performed during the final 2 hours of compound treatment. Cells were then harvested, fixed, permeabilized and stained with BrdU and caspase-3 antibodies, followed by treatment with RNase and propidium iodide. Cells were then analyzed by flow cytometry to document effects on the cell cycle. […] Flow cytometry cell cycle analysis of MET amplified gastric cancer cell line SNU620 are represented in FIG. 6B. SNU 620 cells were treated as described above. […] Subsequent lysates were analyzed by SDS-PAGE and immunoblot using antibodies detecting cleaved PARP, cleaved caspase-3 and β-actin.

SNU620 = experiment: Flow cytometry cell cycle analysis; assay type: cell-based, Human; conditions: SNU 620; dose titration, 24 hours
Description: as §1, §2, §3

[1] = Phase 1 Study 20101132 preliminary PK analysis; conditions: human, in vivo
Description: Safety is assessed according to Common Terminology Criteria for Adverse Events (CTCAE) v4.0 criteria and the DLT (dose limiting toxicity) window is 28 days. Dose escalation is proceeding with a modified 3+3+3 design, which defines the MTD (maximum tolerated dose) to have been exceeded when ≥3 subjects in a cohort experience a DLT.
Dose escalation consists of up to 8 cohorts of 3 to 9 evaluable subjects each. Initially, up to 4 subjects may enroll into a cohort. […] At least 6 subjects will be treated at the MTD. An expansion cohort of up to 20 subjects at the MTD (determined in the dose escalation portion) will be considered to obtain further safety, PK, and efficacy data.

[2] = test system: MET amplified SNU5 gastric cancer tumor xenograft; experiment: SNU5 gastric cancer tumor xenograft model; assay type: in vivo, athymic nude mice; conditions: 0.3, 1, 3 and 10 mg/kg oral gavage once daily
Description: Animals. Female athymic nude mice 6 weeks of age were obtained from Harlan Laboratories (Indianapolis, Ind.). Animals were housed in sterilized caging and received Harlan Teklad autoclavable or irradiated rodent diet and water ad libitum. All of the procedures were conducted as described in an animal care and use protocol approved by Amgen's Institutional Animal Care and Use Committee. The program of animal care is fully accredited by the Association for Assessment and Accreditation of Laboratory Animal Care International.
Xenograft Studies. MKN45 (3×106 with Matrigel at a ratio of 2:1), SNU-5 (5×106 with Matrigel at a ratio of 2:1) cells were injected subcutaneously in the right flank of female athymic nude mice (n=10 per group). […] All mice were dosed by oral gavage once daily. Tumor volume was measured twice weekly with a Pro-Max Fowler Digital Ultra Caliper (Fred Fowler Co., Inc.) as length (mm)×width (mm)×height (mm) and expressed as cubic millimeters. Data are expressed as mean±standard error for each group and plotted as a function of time. The statistical significance of observed differences between growth curves was evaluated by repeated measures ANOVA followed by Dunnett's post hoc test.
Tumor volumes were measured twice weekly until the conclusion of the study.

For COCCOc1cnc2ccn([C@H](C)c3nnc4c(F)cc(-c5cnn(C)c5)cn34)c(=O)c2c1 [Compound M, 6-{(1R)-1-[8-fluoro-6-(1-methyl-1H-pyrazol-4-yl)[1,2,4]triazolo[4,3-a]pyridin-3-yl]ethyl}-3-(2-methoxyethoxy)-1,6-naphthyridin-5(6H)-one], the inhibition at 1 mg/kg (TPR-MET xenografts; Mus musculus, 3 h, read-out: inhibition of phospho-Gab1) was > 90%, the “average exposure shown to inhibit c-Met activity by 90%” value (TPR-MET xenografts; TPR-Met xenograft model) was 0.154 µg/mL and the “S-phase positive cells (BrdU+)” value (MKN-45) was “corresponding reduction”. The “percentage of cells in the G1 phase of the cell cycle” value (MKN-45) was “dose dependent increase”, the “subG1/Caspase-3+ cells (cell killing)” value (SNU620) was “robust induction” and the half-life ([1]; oral, 43 subjects, once daily doses of 25 to 400 mg, tablet formulation, read-out: mean estimates of T1/2,z) was 4.6 to 7.4 h. For the same compound, the concentration at 28 days ([1]; oral, cohort 3 (100 mg) after 28 days of dosing, read-out: human mean trough concentration) was 131 ng/mL, the half-life ([1]; 24 subjects, daily oral doses of up to 200 mg, as of 20 Aug. 2012, read-out: Mean estimates of elimination half-life) was 4.6 to 6.9 h and the “anti-tumor efficacy” value [2] was “robust dose dependent anti-tumor efficacy”.
